Results: ChEMBL document CHEMBL1201862, “PubChem BioAssay data set” (2004)
The source made the active and inactive calls.

How the values were obtained:
Nonstructural protein 1 = Nonstructural protein 1 (Influenza A virus, UniProt Q194T2); assay type: functional, Influenza A virus (A/California/07/2009(H1N1))
Beta-galactosidase = Beta-galactosidase (Escherichia coli, UniProt Q8VNN2); test: beta-galactosidase enzyme inhibitors and activators, dose response, artefact control for CCR6 antagonist project, biochemical, E. coli enzyme, set 3 (AID 504712); assay type: functional
Beta-galactosidase, sequence (Q8VNN2 whole entry): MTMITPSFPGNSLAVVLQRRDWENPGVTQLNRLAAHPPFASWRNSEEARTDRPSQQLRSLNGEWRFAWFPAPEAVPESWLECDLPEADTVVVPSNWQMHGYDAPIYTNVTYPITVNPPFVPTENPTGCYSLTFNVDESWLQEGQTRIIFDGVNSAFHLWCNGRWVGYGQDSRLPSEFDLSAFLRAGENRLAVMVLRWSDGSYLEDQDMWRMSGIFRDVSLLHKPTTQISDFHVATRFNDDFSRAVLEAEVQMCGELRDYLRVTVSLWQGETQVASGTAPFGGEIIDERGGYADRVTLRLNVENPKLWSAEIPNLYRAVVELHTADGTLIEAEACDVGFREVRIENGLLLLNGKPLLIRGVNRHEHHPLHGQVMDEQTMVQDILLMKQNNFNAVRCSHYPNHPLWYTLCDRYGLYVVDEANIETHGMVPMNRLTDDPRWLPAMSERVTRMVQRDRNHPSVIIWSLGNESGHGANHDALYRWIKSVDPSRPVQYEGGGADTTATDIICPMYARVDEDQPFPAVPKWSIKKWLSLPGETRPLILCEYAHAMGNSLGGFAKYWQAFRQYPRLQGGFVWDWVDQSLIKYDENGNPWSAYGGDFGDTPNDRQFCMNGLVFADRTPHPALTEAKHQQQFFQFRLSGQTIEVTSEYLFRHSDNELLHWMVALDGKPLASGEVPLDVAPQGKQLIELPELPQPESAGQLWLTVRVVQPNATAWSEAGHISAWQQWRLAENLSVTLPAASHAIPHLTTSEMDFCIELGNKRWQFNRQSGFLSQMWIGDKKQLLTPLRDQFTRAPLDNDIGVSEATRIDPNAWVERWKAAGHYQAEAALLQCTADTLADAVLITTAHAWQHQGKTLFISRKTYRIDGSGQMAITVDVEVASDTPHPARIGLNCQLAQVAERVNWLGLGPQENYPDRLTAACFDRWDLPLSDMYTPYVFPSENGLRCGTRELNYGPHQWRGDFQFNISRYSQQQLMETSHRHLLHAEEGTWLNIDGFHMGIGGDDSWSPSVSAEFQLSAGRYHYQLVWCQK

Estrogen receptor beta = Estrogen receptor beta (Homo sapiens, UniProt Q92731);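 note: recombinant ER-beta bound to coactivator SRC1 peptide in presence of estradiol agonist; inhibitors block coactivator peptide binding and lower the FRET signal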
Estrogen receptor beta, sequence (Q92731 whole entry): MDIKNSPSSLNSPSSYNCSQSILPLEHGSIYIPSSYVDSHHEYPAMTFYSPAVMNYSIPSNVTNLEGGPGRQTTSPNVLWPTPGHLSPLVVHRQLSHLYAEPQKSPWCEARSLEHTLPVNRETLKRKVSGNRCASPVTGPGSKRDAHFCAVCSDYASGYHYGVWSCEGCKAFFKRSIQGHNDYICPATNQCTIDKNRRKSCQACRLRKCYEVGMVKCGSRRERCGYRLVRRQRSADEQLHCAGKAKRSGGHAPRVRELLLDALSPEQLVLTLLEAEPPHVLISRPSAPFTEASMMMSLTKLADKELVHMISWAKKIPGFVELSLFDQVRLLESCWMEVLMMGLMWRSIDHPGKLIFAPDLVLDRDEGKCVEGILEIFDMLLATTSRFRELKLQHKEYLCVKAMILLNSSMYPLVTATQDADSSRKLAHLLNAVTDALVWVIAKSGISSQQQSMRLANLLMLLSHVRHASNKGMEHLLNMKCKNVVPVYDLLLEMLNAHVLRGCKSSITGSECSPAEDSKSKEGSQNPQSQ

[1] = target: Peroxisome proliferator-activated receptor gamma/Nuclear receptor coactivator 1 (Homo sapiens, UniProt P37231); assay type: functional;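 note: agonist potency as compounds enhance coactivator SRC-1 recruitment to PPARgamma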
[2] = target: Peroxisome proliferator-activated receptor gamma/Nuclear receptor coactivator 2 (Homo sapiens, UniProt P37231); assay type: functional;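 note: agonist potency for raising coactivator recruitment to the receptor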
[3] = target: Peroxisome proliferator-activated receptor gamma/Nuclear receptor coactivator 3 (Homo sapiens, UniProt P37231); assay type: functional;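 note: agonist potency for raising coactivator recruitment to the receptor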
[4] = target: Polyadenylate-binding protein 1 (Homo sapiens, UniProt P11940); test: PABP poly(A) RNA binding inhibitors, primary screen, biochemical, fluorescence polarization, uHTS (AID 2014)
Polyadenylate-binding protein 1, sequence (P11940 whole entry): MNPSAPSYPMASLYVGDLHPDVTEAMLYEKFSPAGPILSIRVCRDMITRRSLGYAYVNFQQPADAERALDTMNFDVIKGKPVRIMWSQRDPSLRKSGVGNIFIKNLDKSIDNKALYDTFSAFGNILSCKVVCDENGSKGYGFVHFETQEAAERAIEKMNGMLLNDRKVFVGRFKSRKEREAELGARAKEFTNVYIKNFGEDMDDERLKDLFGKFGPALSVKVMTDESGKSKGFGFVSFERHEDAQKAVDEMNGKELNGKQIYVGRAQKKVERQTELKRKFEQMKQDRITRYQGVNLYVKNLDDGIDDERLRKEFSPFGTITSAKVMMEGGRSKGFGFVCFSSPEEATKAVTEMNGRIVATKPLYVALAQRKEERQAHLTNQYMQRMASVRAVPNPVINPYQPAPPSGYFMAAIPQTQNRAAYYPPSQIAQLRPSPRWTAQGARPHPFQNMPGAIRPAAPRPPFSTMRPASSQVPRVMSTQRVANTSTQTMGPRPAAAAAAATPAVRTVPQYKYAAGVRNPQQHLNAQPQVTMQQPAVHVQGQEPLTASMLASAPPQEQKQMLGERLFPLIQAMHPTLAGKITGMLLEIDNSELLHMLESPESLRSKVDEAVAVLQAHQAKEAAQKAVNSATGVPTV

[5] = target: Eukaryotic translation initiation factor 4H (Homo sapiens, UniProt Q15056); test: human eIF4H binding inhibitors, primary screen, translation initiation inhibitor project, biochemical, uHTS, fluorescence polarization (AID 2012)
[6] = target: DNA dC->dU-editing enzyme APOBEC-3G (Homo sapiens, UniProt Q9HC16); assay type: functional;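 note: Dose-response counterscreen measuring inhibition of APOBEC3G DNA deaminase activity, run while confirming APOBEC3A inhibitors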
DNA dC->dU-editing enzyme APOBEC-3G, sequence (Q9HC16 whole entry): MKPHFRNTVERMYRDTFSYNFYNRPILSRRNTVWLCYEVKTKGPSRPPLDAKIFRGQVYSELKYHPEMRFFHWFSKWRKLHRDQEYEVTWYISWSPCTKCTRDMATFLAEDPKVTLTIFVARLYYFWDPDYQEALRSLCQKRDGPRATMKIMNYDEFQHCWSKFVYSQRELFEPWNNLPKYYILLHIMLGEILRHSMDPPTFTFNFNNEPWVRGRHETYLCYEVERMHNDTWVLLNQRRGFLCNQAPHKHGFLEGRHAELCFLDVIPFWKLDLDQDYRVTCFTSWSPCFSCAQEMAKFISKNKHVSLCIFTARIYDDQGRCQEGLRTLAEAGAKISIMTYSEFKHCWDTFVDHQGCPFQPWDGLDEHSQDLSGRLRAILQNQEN

[7] = target: DNA dC->dU-editing enzyme APOBEC-3A (Homo sapiens, UniProt P31941); test: Dose Response confirmation of small molecule APOBEC3A DNA Deaminase Inhibitors via a fluorescence-based single-stranded DNA deaminase assay. [Related pubchem assays (depositor defined):AID493011, AID493024]; assay type: functional
DNA dC->dU-editing enzyme APOBEC-3A, sequence (P31941 whole entry): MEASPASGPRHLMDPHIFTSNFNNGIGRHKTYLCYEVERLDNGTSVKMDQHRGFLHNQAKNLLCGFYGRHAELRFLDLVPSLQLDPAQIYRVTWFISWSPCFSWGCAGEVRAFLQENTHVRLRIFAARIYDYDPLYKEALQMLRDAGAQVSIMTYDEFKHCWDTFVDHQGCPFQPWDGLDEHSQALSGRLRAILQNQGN

HEK293 [8] = test: cells; assay type: functional, cell-based; settings: Homo sapiens
[9] = target: Nucleotide-binding oligomerization domain-containing protein 2 (Homo sapiens, UniProt Q9HC29); test: NOD2 signaling inhibitors, cell-based, luminescence, uHTS, HEK293 (AID 1566); assay type: functional
Nucleotide-binding oligomerization domain-containing protein 2, sequence (Q9HC29 whole entry, the tested form may be a part): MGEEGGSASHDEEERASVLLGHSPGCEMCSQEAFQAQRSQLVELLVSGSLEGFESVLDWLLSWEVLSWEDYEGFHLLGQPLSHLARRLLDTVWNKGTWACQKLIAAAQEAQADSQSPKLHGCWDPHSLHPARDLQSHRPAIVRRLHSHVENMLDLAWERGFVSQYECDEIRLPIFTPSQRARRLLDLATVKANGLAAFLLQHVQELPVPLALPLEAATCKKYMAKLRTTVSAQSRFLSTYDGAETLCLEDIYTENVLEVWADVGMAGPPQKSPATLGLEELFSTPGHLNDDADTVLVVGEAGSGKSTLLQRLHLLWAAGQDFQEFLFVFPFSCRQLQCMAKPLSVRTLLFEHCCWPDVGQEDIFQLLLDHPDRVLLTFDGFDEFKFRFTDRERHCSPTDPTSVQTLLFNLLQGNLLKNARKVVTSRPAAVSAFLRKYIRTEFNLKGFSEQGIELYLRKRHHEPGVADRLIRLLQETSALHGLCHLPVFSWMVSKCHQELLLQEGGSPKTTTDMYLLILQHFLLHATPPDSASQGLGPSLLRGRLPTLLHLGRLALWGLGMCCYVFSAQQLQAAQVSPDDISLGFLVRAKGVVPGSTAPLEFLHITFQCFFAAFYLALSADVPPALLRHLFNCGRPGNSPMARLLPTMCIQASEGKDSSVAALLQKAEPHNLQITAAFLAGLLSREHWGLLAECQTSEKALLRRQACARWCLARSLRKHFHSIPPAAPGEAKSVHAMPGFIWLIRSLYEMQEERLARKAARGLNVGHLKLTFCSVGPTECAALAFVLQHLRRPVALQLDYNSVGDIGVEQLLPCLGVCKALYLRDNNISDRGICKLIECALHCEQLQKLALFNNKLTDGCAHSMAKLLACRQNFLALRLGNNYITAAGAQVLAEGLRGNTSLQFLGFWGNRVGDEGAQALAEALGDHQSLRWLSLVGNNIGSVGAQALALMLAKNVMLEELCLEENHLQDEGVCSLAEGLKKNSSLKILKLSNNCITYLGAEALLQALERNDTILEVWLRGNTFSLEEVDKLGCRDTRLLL

HEK293 [10] = test: NOD2 signaling inhibitors in MDP-stimulated cells, cell-based, uHTS, luminescence (AID 2001); assay type: functional; settings: Homo sapiens
HEK293 [11] = test: cells; assay type: functional, cell-based; settings: Homo sapiens; remark: listed apart in the source
[12] = cytotoxicity toward NIH3T3 fibroblasts, dose response, counter-screen, cell-based, ATP luminescence, mouse fibroblasts (AID 2010); assay type: functional;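 note: cells exposed to compound for about 90 hours before reading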
[13] = inhibitors of intracellular T. cruzi replication, confirmation, NIH3T3 host cells, beta-gal luminescence (AID 2044); assay type: functional, cell-based;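 note: intracellular parasites grown in NIH/3T3 mouse fibroblasts as host cells; luminescent beta-galactosidase reporter signal from transgenic T. cruzi replicating inside host cells; inhibitors lower the luminescence signal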
HEK293 [14] = test: cells; assay type: functional, cell-based; settings: Homo sapiens; remark: listed apart in the source
BJ [15] = test: cytotoxicity toward BJ-TERT fibroblasts, dose response, cell-based, RAS-independent, luminescence (AID 1933); assay type: functional; settings: Homo sapiens
[16] = cytotoxicity toward DRD oncogenic fibroblasts, dose response, cell-based, non-viral oncogenic, luminescence (AID 1934); assay type: functional; settings: Homo sapiens
BJ [17] = test: cells; assay type: functional, cell-based; settings: Homo sapiens
BJ [18] = test: cytotoxicity toward BJ-TERT-LT-ST fibroblasts, dose response, cell-based, RAS-independent, luminescence (AID 1935); assay type: functional; settings: Homo sapiens;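 note: BJ fibroblasts immortalized with TERT plus LT and ST oncogenes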
HEK293 [19] = test: NOD1 signaling inhibitors, primary screen, cell-based, luminescence, uHTS (AID 1578); assay type: functional; settings: Homo sapiens
[20] = Luminescence Cell-Based Dose Response to Identify Activators of 5'UTR Stem-Loop Driven Prion Protein mRNA Translation in H4-C Neuroglioblastoma Cells. [Related pubchem assays: 1829 (Project Summary), 1814 (Primary HTS)]; assay type: functional
[21] = Luminescence Cell-Based Dose Response to Identify Activators of Luciferase Translation or Activity in H4-C Neuroglioblastoma Cells. [Related pubchem assays: 1829 (Project Summary), 1814 (Primary HTS)]; assay type: functional
[22] = Luminescence Cell-Based Dose Confirmation to Identify Activators of 5'UTR Stem-Loop Driven Alpha-Synuclein mRNA Translation in H4 Neuroglioblastoma Cells. [Related pubchem assays: 1829 (Project Summary), 1814 (Primary HTS)]; assay type: functional
[23] = Luminescence Cell-Based Dose Response HTS to Identify Activators of Luciferase Translation or Activity in H4 […] Cells. [Related pubchem assays: 1829 (Project Summary), 1814 (Primary HTS)]; assay type: functional
[24] = target: FAD-linked sulfhydryl oxidase ALR (Homo sapiens, UniProt P55789); test: inhibitors of human ALR sulfhydryl oxidase, dose response, biochemical, H2O2 detection, luminescence, cherry-pick (AID 493248)
FAD-linked sulfhydryl oxidase ALR, sequence (P55789 whole entry): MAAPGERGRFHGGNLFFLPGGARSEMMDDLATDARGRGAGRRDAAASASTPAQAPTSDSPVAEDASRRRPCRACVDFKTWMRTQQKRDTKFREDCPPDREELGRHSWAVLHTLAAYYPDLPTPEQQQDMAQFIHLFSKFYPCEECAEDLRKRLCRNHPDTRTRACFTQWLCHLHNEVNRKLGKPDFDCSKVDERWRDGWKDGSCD

H4 = test: Luminescence Cell-Based Dose Response HTS to Identify Activators of 5'UTR Stem-Loop Driven Prion Protein mRNA Translation in H4 Neuroglioblastoma Cells. [Related pubchem assays: 1829 (Project Summary), 1814 (Primary HTS)]; assay type: functional; settings: Homo sapiens
[25] = C. albicans growth with fluconazole, confirmation, fluorescence, retest (AID 2467); assay type: functional, cell-based
[26] = NIH-3T3 fibroblast cytotoxicity, dose response, cytotoxicity control, cell-based, fluorescence, Alamar Blue, secondary assay (AID 2327); assay type: functional;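 note: NIH-3T3 mouse fibroblasts cultured with fluconazole at 8 µg/mL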
[27] = target: T1, Carboxy-terminal domain RNA polymerase II polypeptide A small phosphatase 1 (Homo sapiens, UniProt Q9GZU7); test: inhibitors of CTDSP1, concentration-response testing, biochemical assay, absorbance-based, actives from ultra-high-throughput screening (AID 540297); assay type: functional
T1 sequence (Q9GZU7 whole entry): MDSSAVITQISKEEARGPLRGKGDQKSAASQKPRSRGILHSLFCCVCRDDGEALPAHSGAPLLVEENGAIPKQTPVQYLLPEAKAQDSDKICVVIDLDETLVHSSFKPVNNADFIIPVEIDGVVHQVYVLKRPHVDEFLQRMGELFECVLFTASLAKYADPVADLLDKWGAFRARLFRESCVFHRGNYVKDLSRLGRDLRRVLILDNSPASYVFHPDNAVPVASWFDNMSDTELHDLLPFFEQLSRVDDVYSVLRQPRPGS

[28] = A549 cell cytotoxicity, dose response, cytotoxicity control, plate reader, cherry-pick, antagonist series (AID 743412); assay type: functional, cell-based
[29] = MC4R antagonists, dose response, counter-screen for LGR2 antagonist project, cell-based, plate reader, cherry pick (AID 743444); assay type: functional;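 note: transfected HEK 293 cells stimulated with alpha-MSH peptide; potency of inhibitors of the alpha-MSH evoked signal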
[30] = Luminescence-based counterscreen assay for KLF5 inhibitors: dose response cell-based high throughput screening assay to identify cytotoxic compounds using the IEC-6 intestinal epithelial cell line. [Related pubchem assays: 1700 (Primary screen.), 1834 (Confirmation screen.), 1858 (Summary AID.), 1905 (Counterscreen.)]; assay type: functional
[31] = Luminescence Cell-Based Dose Response HTS to Identify Inhibitors of 5'UTR Stem-Loop Driven Prion Protein mRNA Translation in H4 Neuroglioblastoma Cells. [Related pubchem assays: 1827 (Project Summary), 1813 (Primary HTS)]; assay type: functional
[32] = inhibitors of firefly luciferase expression or activity, dose response, H4 neuroglioma cells, luminescence (AID 1990); assay type: functional, cell-based
[33] = LGR2 antagonists, dose response, cell-based, HEK293, CRE-luciferase reporter, cherry pick, set 2 (AID 743343); assay type: functional;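 note: transfected cells were stimulated with diluted bursicon conditioned medium after compound addition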
[34] = inhibitors of SNCA 5'UTR-driven reporter translation, confirmation, H4 neuroglioma cells, luminescence (AID 1988); assay type: functional, cell-based
[35] = HepG2 cell cytotoxicity, dose response, cytotoxicity control, plate reader, cherry-pick, antagonist series (AID 743416); assay type: functional, cell-based

Nonstructural protein 1, sequence (Q194T2 whole entry): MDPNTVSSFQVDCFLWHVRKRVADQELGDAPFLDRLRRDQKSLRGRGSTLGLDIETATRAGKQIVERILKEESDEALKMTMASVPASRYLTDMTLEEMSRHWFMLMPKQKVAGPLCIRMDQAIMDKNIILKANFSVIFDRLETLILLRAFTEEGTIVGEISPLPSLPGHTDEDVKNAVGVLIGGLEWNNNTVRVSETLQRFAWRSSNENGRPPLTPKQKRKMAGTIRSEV

With `O=[N+]([O-])c1ccc(O)c(/C=N/Nc2nn[nH]n2)c1` the IC50 (Nonstructural protein 1) was 1.66 µM (active) and the IC50 (Beta-galactosidase) was > 66.6 µM (inactive).
For `CSc1nc(O)c2c(n1)N=C1CCCC(O)=C1C2c1cccs1` (stereo unspecified), the IC50 (Estrogen receptor beta) was 11.4 µM (active).
In the case of `CCOc1ccc(CCNC(=O)CSc2nn(-c3ccc(C)c(Cl)c3)c(=S)s2)cc1OCC`, the EC50 [1] is reported as > 79.4 µM (not active), the EC50 [2] is reported as 51.9 µM (not active) and the EC50 [3] is reported as > 79.4 µM (not active).
With `CC(C)(C#CCCCCC#CC(C)(C)[N+](C)(C)C)[N+](C)(C)C` the IC50 [4] was 7.97 µM (active) and the IC50 [5] was > 100 µM (inactive).
With `O=C(O)CC(Cn1nnnc1S)c1ccccc1` (stereo unspecified) the IC50 (Estrogen receptor beta) was > 50 µM (not active).
In the case of `CC(C)[N+](C)(C)CC#CC(O)(c1ccccc1)c1ccccc1`, the IC50 [6] is reported as 2.49 µM (active), the IC50 [4] is reported as 9.63 µM (active) and the IC50 [5] is reported as > 100 µM (inactive). The IC50 [7] was 2.55 µM (active).
In the case of `COc1cc(/C=C/c2ccc3cccc(O)c3n2)cc(Br)c1OC`, the IC50 (HEK293 [8]) is reported as > 20 µM (inactive), the EC50 [9] is reported as > 20 µM (inactive) and the IC50 (HEK293 [10]) is reported as 4.13 µM (inactive). For the same molecule, the IC50 (HEK293 [11]) was 10.4 µM (active), the EC50 [12] was 9.61 µM (active) and the EC50 [13] was 0.699 µM (active). For the same molecule, the IC50 (HEK293 [14]) was > 20 µM (inactive), the EC50 (BJ [15]) was 10.2 µM (active) and the EC50 [16] was 21.1 µM (active). For the same molecule, the EC50 (BJ [17]) was 35.8 µM (active), the EC50 (BJ [18]) was 21.1 µM (active) and the EC50 (HEK293 [19]) was > 20 µM (inactive).
For `CN(C)c1ccc(/C=C/c2nnnn2-c2ccccc2)cc1`, the EC50 [20] was 0.463 µM (active), the EC50 [21] was 0.323 µM (active) and the EC50 [22] was 0.365 µM (active). The EC50 [23] was < 0.1 µM (inconclusive), the AC50 [24] was 0.894 µM (active) and the EC50 (H4) was < 0.1 µM (active).
In the case of `CC1(C)CC(N2CCCC2)=CC(=[N+]2CCCC2)C1`, the IC50 [6] is reported as 1.47 µM (active), the EC50 [12] is reported as > 60 µM (not active) and the EC50 [25] is reported as 2.7 µM (active). The EC50 [13] was 0.693 µM (active), the EC50 [26] was > 160 µM (inactive) and the IC50 [27] was 3.62 µM (active). The IC50 [7] was 1.53 µM (active).
With `COC(=O)c1c(N)sc(C(=O)NCCc2ccccc2)c1C` the AC50 [28] was > 52 µM (inactive), the AC50 [29] was 1.94 µM (active) and the IC50 [30] was > 39.8 µM (not active). For the same molecule, the EC50 [31] was 0.394 µM (active), the EC50 [32] was 3.07 µM (active) and the AC50 [33] was 1.44 µM (active). The EC50 [34] was 0.213 µM (active) and the AC50 [35] was > 52 µM (inactive).
